Data from article PMC4121658 (Anesthesiology, 2014).

Tests used:
[1] = biological target: α1(L264T)β1γ2L GABAA receptors (Homo sapiens, UniProt P14867+P18505, L291T); assay type: cell-based; conditions: for Surge current amplitude, of the directly activated peak current: 1000 μM drug, upon washout, α1(L264T)β1γ2L
[2] = biological target: α1(L264T)β3γ2L GABAA receptors (Homo sapiens, UniProt P14867+P28472, L291T); experiment: cell-based; assay type: cell-based; conditions: for Surge current amplitude, of the directly activated peak current: 1000 μM drug, upon washout, α1(L264T)β3γ2L; for Subunit Selectivity Ratio: EC50 β1 subunit/EC50 β3 subunit, ± SD by error propagation
α1(L264T)β3γ2L GABAA receptors, sequence (P14867 28-456 L291T): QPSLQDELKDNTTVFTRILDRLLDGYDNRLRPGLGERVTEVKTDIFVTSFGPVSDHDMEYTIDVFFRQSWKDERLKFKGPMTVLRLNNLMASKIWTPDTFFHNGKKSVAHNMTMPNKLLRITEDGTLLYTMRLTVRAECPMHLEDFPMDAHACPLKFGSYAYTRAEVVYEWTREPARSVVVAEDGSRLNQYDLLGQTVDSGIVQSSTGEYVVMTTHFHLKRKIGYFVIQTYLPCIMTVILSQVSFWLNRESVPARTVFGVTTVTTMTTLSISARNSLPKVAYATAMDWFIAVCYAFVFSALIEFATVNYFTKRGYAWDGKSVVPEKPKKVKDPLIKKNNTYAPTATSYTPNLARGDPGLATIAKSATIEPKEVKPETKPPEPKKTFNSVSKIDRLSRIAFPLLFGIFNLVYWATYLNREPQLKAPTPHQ
α1(L264T)β3γ2L GABAA receptors, sequence (P28472 26-473): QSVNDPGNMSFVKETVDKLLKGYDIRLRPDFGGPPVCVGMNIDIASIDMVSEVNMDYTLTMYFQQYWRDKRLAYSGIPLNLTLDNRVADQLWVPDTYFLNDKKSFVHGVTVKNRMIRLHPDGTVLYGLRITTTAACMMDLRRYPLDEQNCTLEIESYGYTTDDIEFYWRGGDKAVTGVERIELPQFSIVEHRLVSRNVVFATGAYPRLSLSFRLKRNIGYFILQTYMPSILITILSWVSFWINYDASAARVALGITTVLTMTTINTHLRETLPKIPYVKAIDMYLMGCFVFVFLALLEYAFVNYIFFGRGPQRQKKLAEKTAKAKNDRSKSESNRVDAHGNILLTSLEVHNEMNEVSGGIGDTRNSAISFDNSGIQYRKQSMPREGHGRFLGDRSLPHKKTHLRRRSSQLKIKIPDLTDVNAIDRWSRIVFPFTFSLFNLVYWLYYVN
α1(L264T)β3γ2L GABAA receptors, sequence (P18507 40-475 partner): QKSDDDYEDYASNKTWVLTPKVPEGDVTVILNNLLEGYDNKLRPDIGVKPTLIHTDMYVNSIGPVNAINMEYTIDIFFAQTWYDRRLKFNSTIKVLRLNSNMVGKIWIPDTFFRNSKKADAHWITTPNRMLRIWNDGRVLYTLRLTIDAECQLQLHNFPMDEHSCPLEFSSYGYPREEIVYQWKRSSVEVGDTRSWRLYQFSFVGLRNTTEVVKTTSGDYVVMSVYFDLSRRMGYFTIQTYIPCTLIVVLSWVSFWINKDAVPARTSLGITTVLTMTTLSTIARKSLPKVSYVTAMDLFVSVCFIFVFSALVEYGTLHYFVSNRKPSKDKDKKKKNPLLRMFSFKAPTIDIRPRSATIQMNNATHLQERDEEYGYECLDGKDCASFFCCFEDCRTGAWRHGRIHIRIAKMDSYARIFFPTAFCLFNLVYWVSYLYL

[3] = Lethality after intravenous bolus injection; assay type: in vivo, Sprague-Dawley rats; conditions: Sprague-Dawley, rat, in vivo, iv
rats [4] = experiment: Lethality after intravenous bolus injection; assay type: in vivo, Sprague-Dawley rats; conditions: for rats died: intravenous bolus; for Therapeutic Index: LD50/Hypnotic ED50, rats
adrenocortical function = experiment: ACTH1–24 stimulation test, in vivo adrenocortical inhibitory potency; design: species or system Sprague-Dawley rats; conditions: Adrenocortical ID50/Hypnotic ED50, rats
rats [5] = conditions: larger number of Sprague Dawley rats; cited from earlier work

α1(L264T)β1γ2L GABAA receptors, sequence (P14867 28-456 L291T): as the sequence (P14867 28-456 L291T) above
α1(L264T)β1γ2L GABAA receptors, sequence (P18505 26-474): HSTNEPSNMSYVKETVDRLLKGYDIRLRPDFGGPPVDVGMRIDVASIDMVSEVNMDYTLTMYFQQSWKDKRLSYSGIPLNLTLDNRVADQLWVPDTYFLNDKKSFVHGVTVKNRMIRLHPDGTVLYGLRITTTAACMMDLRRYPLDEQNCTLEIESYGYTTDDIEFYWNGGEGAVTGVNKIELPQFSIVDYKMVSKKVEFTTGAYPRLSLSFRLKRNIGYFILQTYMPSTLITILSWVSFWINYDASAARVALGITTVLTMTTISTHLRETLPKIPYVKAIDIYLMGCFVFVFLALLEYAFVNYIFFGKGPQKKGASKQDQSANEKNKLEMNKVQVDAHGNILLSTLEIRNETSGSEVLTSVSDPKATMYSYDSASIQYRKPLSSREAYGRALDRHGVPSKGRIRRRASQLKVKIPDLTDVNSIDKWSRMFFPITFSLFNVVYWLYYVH
α1(L264T)β1γ2L GABAA receptors, sequence (P18507 40-475 partner): as the sequence (P18507 40-475 partner) above

CCOC(=O)c1cncn1C1(c2ccccc2)CC1 [cyclopropyl etomidate, ethyl 1-(1-phenylcyclopropyl)-1H-imidazole-5-carboxylate]
EC50 [1]: 1590 ± 140 µM
Surge current amplitude, of the directly activated peak current [1]: 73.0 ± 38.5%
EC50 [2]: 67.6 ± 8.1 µM
Surge current amplitude, of the directly activated peak current [2]: 61.5 ± 6.9%
Subunit Selectivity Ratio [2]: 23.5 ± 3.5
LD50 [3]: 50 mg/kg
rats died (rats [4]; 50 mg/kg dose): 2/4
Therapeutic Index (rats [4]): 10
Adrenocortical Toxicity Index (adrenocortical function): 0.38 ± 0.08

CC(C)c1cccc(C(C)C)c1O [propofol, reference compound]
EC50 [2]: 7.58 ± 0.83 µM

CCOC(=O)c1cncn1[C@H](C)c1ccccc1 [R-etomidate, R-ethyl 1-(1-phenylethyl)-1H-imidazole-5-carboxylate, reference compound]
LD50 [3]: 15 mg/kg
LD50 ([3]; 20 mg/kg): 20 mg/kg
rats died (rats [4]; 20 mg/kg dose): 1/2
LD50, previously reported value (rats [5]): 20.4 mg/kg

CCOC(=O)c1cncn1[C@@H](C)c1ccccc1 [S-etomidate, S-ethyl 1-(1-phenylethyl)-1H-imidazole-5-carboxylate, reference compound]
LD50 [3]: 25 mg/kg
rats died (rats [4]; 30 mg/kg dose): 3/3

CCOC(=O)c1cncn1Cc1ccccc1 [dihydrogen etomidate, ethyl 1-benzyl-1H-imidazole-5-carboxylate]
EC50 [1]: 400 ± 28 µM
Surge current amplitude, of the directly activated peak current [1]: 3 ± 2%
EC50 [2]: 161 ± 13 µM
Surge current amplitude, of the directly activated peak current [2]: 3 ± 2%
Subunit Selectivity Ratio [2]: 2.48 ± 0.27
LD50 [3]: 40 mg/kg
rats died (rats [4]; 50 mg/kg dose): 3/3
Therapeutic Index (rats [4]): 8
Adrenocortical Toxicity Index (adrenocortical function): 0.52 ± 0.12
